In patent US7525013B2, “Soybean selection system based on AEC-resistance” (United Soybean Board, priority 2003, dated 2009):

Key:
[1] = tested on: proliferating soybean somatic embryos; assay: Killing / growth inhibition of proliferating soybean somatic embryos; format: cell-based
Experimental: (§1) As a first step in the selection, different concentrations of AEC were used to see if it can kill the proliferating soybean somatic embryos as well as tobacco leaves and germinating tobacco and soybean seeds and germinating soybean somatic embryos. The effect of AEC is clearly seen in all these cases with varying concentrations. […] For proliferating soybean somatic embryo concentrations up to 1 mM AEC is needed along with 0.0075% methylated seed oil to kill them. To further confirm that AEC is acting on the above mentioned tissues, the E. coli DHDPS gene was cloned and put into the binary vector p1201 with the pea RBCs transit peptide under the CaMV 35S promoter.
However, selection during proliferation is always a better way as selected clones can be proliferated and the untransformed embryos can be killed in the earlier stages itself. Unfortunately concentrations up to 20 mM were not sufficient to kill most of the proliferating embryos, though some of the embryos turned yellowish and developed brown spots, but many of them continued to proliferate like controls even after two changes of the medium, once every 15 days. To find out if surfactants can help in AEC absorption during proliferation a methylated seed oil based surfactant was used. […] It was determined that a 0.005% concentration is suitable to use with AEC. […] The cultures on plates with 20 mM AEC died in 4 days indicating solid medium selection can be useful.
(§2) Spray studies have been done using major dicot and monocot weeds, pigweed (Amaranthus retroflexus) and giant foxtail (Setaria faberi) in addition to tobacco. These experiments using 7 to 10 day old seedlings show 20 mM AEC is lethal to pigweed, foxtail and tobacco.

[2] = tested on: tobacco seeds; assay: Germination of tobacco seeds; format: in vivo; settings: germinating tobacco seeds
Experimental: as §1

[3] = tested on: E. coli auxotroph AT998 rescued with modified soybean DHPS gene; assay: Growth of E. coli auxotroph rescued with modified soybean DHPS gene on 2-AEC plates; format: cell-based; settings: minimal media plates with 0.5 mM 2-AEC
Text: To test if the modified soy DHDPS can become insensitive to AEC and whether 18:1 desaturases can function as a 16:1 desaturase, experiments were conduced with E. Coli auxotrophs. A DHDPS auxotroph was obtained from the E. coli genetic center that can be rescued on medium without diaminopimelic acid when transformed with lysine insensitive DHPS and not with the wild type gene. Similarly, the E. coli auxotroph (fabA/fadR mutant) was obtained which can be complimented by C14 and C16 ACP desaturases but not by stearoyl-ACP desaturases. The primers required for cloning were designated and obtained from soybean genes. A suitable E. coli expression vector was obtained to express these genes in the respective auxotrophs.
It was shown in Arabidopsis, and populous deltoidsXpopulus tricho carpa modification of tryptophan53 (W) to Arginine53 (R) made the DHPS enzyme from these two plants insensitive to lysine concentrations up to 1 mM. E. coli auxotroph AT997 was rescued using these modified genes. This tryptophan residue is present in the consensus sequence MSWDEHI (SEQ ID NO: 6) in several plant DHPS genes (Vauterin et al.,2000). […] With our modified soybean DHPS gene we obtained similar results. We also targeted the tryptophan residue present in the consensus sequence MSWDEHI (SEQ ID NO: 6) in the soybean DHPS gene to convert it to arginine.

[4] = tested on: giant foxtail (Setaria faberi); assay: Herbicide spray study on giant foxtail; format: in vivo
Experimental: as §2
(§3) A major dicot and monocot weed of tobacco, pigweed (Amaranthus retroflexus) and giant foxtail (Setaria faberi) was used in addition to a model crop plant, tobacco. […] For larger plants grown in the green house 20 mM lysine and threonine or 40 mM lysine alone are needed for effective weed control. To increase uptake of these compounds, up to 0.2% Silwett (surfactant) was used. Silwett at 0.5% and above kills the plants. Silwett was not found to be a very effective surfactant. Studies with cultured cells and seedlings indicate that 100 μM levels of AEC are effective for selection.

[5] = tested on: cultured cells and seedlings; assay: Selection studies with cultured cells and seedlings; format: cell-based
Experimental: as §3

[6] = tested on: model system seeds; assay: Germination of model system seeds on AEC containing agar plates; format: in vivo; settings: 2 mM and 5 mM AEC agar plates
Experimental: (§4) An AEC selection system for soybean seeds with precise genetic changes and model system seeds (for rapid system validation) were germinated on 2 mM and 5 mM AEC containing agar plates. On the control plates without AEC all the seeds germinated, however only ˜10% of the soybean seeds germinated on 2 mM AEC plates and none on 5 mM plates.

[7] = tested on: tobacco; assay: Herbicide spray study on tobacco; format: in vivo
Experimental: as §2, §3

[8] = tested on: pigweed (Amaranthus retroflexus); assay: Herbicide spray study on pigweed; format: in vivo
Experimental: as §2, §3

[9] = molecular target: DHPS enzyme of E. coli (Escherichia coli, UniProt P0A6L2); settings: E. coli DHPS versus plant enzymes; cited from earlier work
DHPS enzyme of E. coli, sequence (P0A6L2 whole entry): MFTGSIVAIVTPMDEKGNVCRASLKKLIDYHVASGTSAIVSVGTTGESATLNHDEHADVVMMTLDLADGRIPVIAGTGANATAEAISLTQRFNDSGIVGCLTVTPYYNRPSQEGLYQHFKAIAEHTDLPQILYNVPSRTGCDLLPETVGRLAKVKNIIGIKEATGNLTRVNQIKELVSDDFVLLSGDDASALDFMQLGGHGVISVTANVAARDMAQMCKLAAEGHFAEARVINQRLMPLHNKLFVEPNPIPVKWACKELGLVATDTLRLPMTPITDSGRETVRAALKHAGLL

[10] = tested on: germinating soybean somatic embryos; assay: Germination of soybean somatic embryos; format: cell-based
Experimental: as §1
The effect of AEC on soybean somatic embryos were checked at two stages (1) during the germination (2) during proliferation. The AEC effect during germination was very effective with concentrations above 100 μM were enough to prevent the germination completely.
(§5) To determine whether AEC can be developed as a selectable marker for soybeans the effect of different concentrations of AEC was examined on the germination of soybean seeds and matured soybean somatic embryos and on proliferating soybean somatic embryos. The effect of AEC is clearly seen in all these cases with varying concentrations. The effect of AEC was also examined as a herbicide against pigweed, foxtail and tobacco.

[11] = tested on: soybean seeds; assay: Germination of soybean seeds on AEC containing agar plates; format: in vivo
Experimental: as §1, §4, §5

[12] = tested on: Clones expressing the insensitive plant DHPS enzymes (E. coli auxotroph AT997); settings: clones expressing lysine insensitive plant DHPS; cited from earlier work
[13] = molecular target: plant enzymes (DHPS); settings: read-out: IC50 for lysine; cited from earlier work
[14] = tested on: DHPS enzyme, tryptophan53 (W) to Arginine53 (R); settings: W53R DHPS; cited from earlier work
[15] = tested on: larger plants grown in the green house; assay: Weed control on larger plants grown in the green house; format: in vivo
Experimental: as §3

[16] = molecular target: T1, DHPS enzyme, tryptophan53 (W) to Arginine53 (R) (Arabidopsis thaliana, UniProt Q9LZX6, W116R); settings: W53R DHPS; cited from earlier work
T1 construct: host or cells: E. coli auxotroph AT997 (clones expressing the plant cDNA)
T1 sequence (Q9LZX6 40-365 W116R): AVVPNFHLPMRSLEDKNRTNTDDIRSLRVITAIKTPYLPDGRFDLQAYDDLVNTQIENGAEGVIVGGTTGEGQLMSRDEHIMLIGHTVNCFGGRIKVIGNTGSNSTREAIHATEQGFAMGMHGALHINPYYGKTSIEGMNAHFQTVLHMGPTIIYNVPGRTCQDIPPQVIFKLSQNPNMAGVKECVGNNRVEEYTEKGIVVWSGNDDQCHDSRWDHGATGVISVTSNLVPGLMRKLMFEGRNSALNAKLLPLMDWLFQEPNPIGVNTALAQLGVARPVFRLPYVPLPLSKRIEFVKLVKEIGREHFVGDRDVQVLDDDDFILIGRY

NCCSC[C@H](N)C(=O)O [AEC, S-2-aminoethyl-cysteine]
AEC concentration needed to kill proliferating soybean somatic embryos ([1]; along with 0.0075% methylated seed oil): up to 1 mM
AEC concentration sufficient to kill proliferating soybean somatic embryos ([1]; on 1/5th D20 medium (1/5 MS salts, 1/5 B5 vitamins, 20 mg/L 2,4-D)): 1.5 mM
time until cultures died ([1]; solid medium plates, 0.2% surfactant, 20 mM AEC): 4 days
state of proliferating embryo cultures ([1]; solid medium, 0.2% surfactant, 10 mM AEC, controls behaved the same): remained green with growth for two weeks before they died
AEC concentrations not sufficient to kill most of the proliferating embryos ([1]; without surfactant, two changes of medium, once every 15 days): up to 20 mM
AEC concentration required to completely inhibit germination of tobacco seeds [2]: 2.5 mM
growth of rescued auxotroph [3]: grows well
concentration lethal to foxtail ([4]; 7 to 10 day old seedlings): 20 mM
concentration sufficient to kill fox tail ([4]; whole plant level): 20 mM
AEC levels effective for selection [5]: 100 µM
model system seeds germinated [6]: Not a single model system seed germinated
concentration lethal to tobacco ([7]; 7 to 10 day old seedlings): 20 mM
concentration sufficient to kill tobacco ([7]; whole plant level): 20 mM
concentration lethal to pigweed ([8]; 7 to 10 day old seedlings): 20 mM
concentration that effectively prevented the growth of pig weed ([8]; whole plant level): 20 mM
fold less sensitive to AEC than plant enzymes [9]: 50 fold
effect on germination of soybean somatic embryos ([10]; 100 μM AEC): quite effective
AEC concentration sufficient to completely inhibit germination of soybean somatic embryos ([10]; Example 1): 100 μm
inhibition of soybean somatic embryos (SSE) germination ([10]; qualitative): can inhibit
soybean seeds germinated ([11]; 2 mM AEC agar plates, all seeds germinated on control plates): ~10%
effect on germination of soybean seeds ([11]; 2.5 mM AEC): quite effective
soybean seeds germinated ([11]; 5 mM AEC agar plates): none
inhibition of seed germination ([11]; qualitative): can inhibit
2-AEC concentration to which clones were resistant [12]: 2.5 mM

NCCCC[C@H](N)C(=O)O [lysine]
IC50 [13]: 10 µM
lysine concentrations to which the modified DHPS enzyme is insensitive [14]: up to 1 mM
concentration needed for effective weed control [15]: 40 mM
lysine concentrations to which the modified DHPS enzyme is insensitive [16]: up to 1 mM
